Reference: the METLIN SMRT retention time set (Domingo-Almenara et al. 2019)

Assay: gradient 5% acetonitrile 3 min, to 50% in 2 min, to 85% in 15 min, held 3 min, 100 µL/min
Details: column: Zorbax Extend-C18 2.1 x 50 mm; eluents: water / acetonitrile, 0.1% formic acid
Procedure, shortened: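 In both positive and negative ionization mode, a quadrupole time-of-flight mass spectrometer coupled to HPLC analyzed pure standards run in mixtures of ~100 molecules. The Zorbax Extend-C18 column (2.1 × 50 mm, 1.8 μm) was operated at 100 μL/min with water and acetonitrile, each containing 0.1% formic acid. The dead volume was 40 μL and the dwell volume 900 μL. Retention time came from adduct peaks that were computationally picked and individually inspected by hand.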

| RP-LC retention time | SMILES |
| --- | --- |
| 610 s | O=C(NCCc1ccccn1)c1sc2ncccc2c1-n1cccc1 |
| 712 s | COc1ccc(NC(=O)C2CCN(S(=O)(=O)c3cc4c(cc3C)NC(=O)CO4)CC2)cc1OC |
| 715 s | CNC(=O)C1CN(C(=O)Nc2cc(C)ccc2C)CC12CCCC2 (stereo not given) |
| 1060 s | CCc1sc(NC(=O)c2cc(C)on2)nc1-c1ccccc1 |
| 744 s | CN(CC1CCOC1)C(=O)Nc1cc(F)cc(F)c1 (stereo not given) |
| 863 s | Cc1nc(-c2cn(C)c3ncccc23)sc1C(=O)NCc1ccccc1 |
| 912 s | O=S(=O)(c1ccccc1Cl)N1CCC(OCc2noc(C3CCCO3)n2)CC1 (stereo not given) |
| 572 s | COCCNC(=O)CCC1CCN(c2cc(NC3CC3)ncn2)CC1 |
| 726 s | O=C(c1cccc(N2C(=O)CCS2(=O)=O)c1)N1CCN(c2ccccn2)CC1 |
| 823 s | CC(C)CN1C(=O)CSc2cnn(CC(=O)N3CCN(c4ccccc4)CC3)c(=O)c21 |
| 780 s | COc1cccc(CNC(=O)CN2C(=O)NC(c3ccccc3Cl)C3=C2COC3=O)c1 (stereo not given) |
| 946 s | CCOC(=O)c1noc2ncnc(NCCN(CC)c3cccc(C)c3)c12 |
| 649 s | CC(NC(=O)Cc1cccn1-c1ccc(Cl)cc1)c1cccnc1 (stereo not given) |
| 993 s | O=C(Cn1cnc2c(sc3nc(-c4ccccc4)ccc32)c1=O)Nc1ccccc1F |
| 1020 s | Cc1nnc(-c2ccc3ccn(CC(=O)N4CCN(c5cc(Cl)ccc5C)CC4)c3c2)o1 |
| 714 s | O=C(NCc1cccs1)C1CCN(C(=O)C2Sc3ccccc3NC2=O)CC1 (stereo not given) |
| 588 s | CC(C)N1CCN(C(=O)c2ccc(-c3cccs3)nc2)CC1 |
| 895 s | CC1=NS(=O)(=O)N(C)C=C1C(=O)OCc1nc(-c2ccccc2F)no1 |
| 719 s | Fc1ccc(CSc2ncnc3nc[nH]c23)cc1 |
| 1330 s | CC(C)c1csc(-c2csc(S(=O)(=O)N3CCN(c4ccccc4F)CC3)c2)n1 |
| 840 s | CC(=O)c1cccc(NC(=O)c2cccc(Br)c2)c1 |
| 760 s | CC(=O)Nc1ccc(SCc2nnc(-c3ccc4c(c3)OCO4)o2)cc1 |
| 599 s | COc1ccc(N2CCN(C(=O)c3cc(-c4ccncc4)cn3C)CC2)cc1 |

| RP-LC retention time | SMILES |
| --- | --- |
| 578 s | CCNC(=O)N1CCCC(Cn2cnc3cccnc32)C1 (stereo not given) |
| 695 s | CCOC(=O)C1=CN(C)S(=O)(=O)N=C1C |
| 661 s | COCc1nc(-c2ccc(OC3CN(Cc4cccs4)C3)cc2)no1 |
| 813 s | O=C(NCc1csc(-c2ccccc2)n1)C1CCCN(c2cc(-n3cccn3)ncn2)C1 (stereo not given) |
| 850 s | c1ccc(-c2nnc(-c3ccccn3)s2)nc1 |
| 631 s | Fc1ccc(OCCc2noc(C3CCCN3)n2)cc1 (stereo not given) |
| 760 s | CCC(=O)Nc1ccc(-n2cnc(C(=O)NCc3ccc(F)c(Cl)c3)c2)nc1 |
| 701 s | COc1ccc(NS(=O)(=O)c2cc(-c3[nH]ncc3C(=O)N3CCCC3)oc2C)cc1F |
| 609 s | O=C(CSc1ccc(N2CCC(C(=O)NC3CC3)CC2)nn1)NCc1ccc(F)cc1 |
| 645 s | O=C(NCCCN1CCCCC1)c1ccc2ccnc(N3CCN(c4ccc(Cl)cc4)CC3)c2c1 |
| 788 s | O=C(NCc1ccco1)c1cc(-c2cccnc2)nc2ccc(Cl)cc12 |
| 1240 s | CCCn1c(=O)c(C)nc2cc(-c3noc(-c4sccc4C)n3)ccc21 |
| 534 s | Nc1nc(F)nc2c1ncn2[C@@H]1O[C@H](COP(=O)(O)O)[C@@H](O)[C@@H]1O |
| 660 s | COc1ccc(Br)cc1C1C(C(=O)N2CCOCC2)=C(C)NC2=C1C(=O)CCC2 (stereo not given) |
| 617 s | CCC(C)NC(=O)c1cnn(-c2cc(-c3nc(C(C)C)no3)ccn2)c1C (stereo not given) |
| 1050 s | O=S(=O)(Cc1ccccc1)N1CCCC(Cc2noc(-c3ccccc3)n2)C1 (stereo not given) |
| 856 s | COc1ccc(OC)c(NC(=O)N2CCC3(CC2)N=C(c2cccc(F)c2)C(=O)N3)c1 |
| 651 s | Cc1cccc(Nc2nc(CC(=O)NCCOc3ccc(F)cc3)cs2)n1 |
| 684 s | CC(C)NC(=O)c1ccc(-c2nc3cc(NS(=O)(=O)c4ccc(F)cc4)ccc3n2C)cc1 |
| 679 s | C=CCNc1c(C(=O)OC)c(=O)[nH]c2ccc(F)cc12 |
| 788 s | O=C(Cn1ncc2c(c1=O)N(CC1CC1)C(=O)CS2)N1CCN(c2ccccc2)CC1 |
| 787 s | COc1cccc(N2C(=O)NC3CC2(C)Oc2ccc(OC)cc23)c1 (stereo not given) |
| 1090 s | COc1ccc(N2CCN(S(=O)(=O)c3cc(-c4csc(C)n4)sc3C)CC2)cc1 |

| RP-LC retention time | SMILES |
| --- | --- |
| 772 s | COc1cc(N)c(Cl)cc1C(=O)N[C@@H]1CCN(CCCOc2ccc(F)cc2)C[C@@H]1OC |
| 735 s | Cc1cc(-c2ccc(S(=O)(=O)N3CCC(C(=O)NCc4cccs4)CC3)o2)n[nH]1 |
| 805 s | CCOc1ccccc1CNC(=O)Cc1nnc(-c2cccc(F)c2)o1 |
| 698 s | CCOc1ccccc1NC(=O)N(Cc1cccs1)C1CCN(CC)CC1 |
| 854 s | CCCC(=O)Nc1ccc(OCc2cc(C(=O)NC3CCCC3)no2)cc1 |
| 606 s | CCOC(=O)N1CCN(C(=O)C2CCCN(c3ccc(-c4ccco4)nn3)C2)CC1 (stereo not given) |
| 831 s | Cc1ccc(C(=O)N2CCN(c3cc(-c4cccs4)[nH]n3)CC2)c(C)c1 |
| 860 s | CC(C)c1nc2c(NC(=O)c3ccccc3)cccn2n1 |
| 636 s | CCC(=O)N(C1CCOCC1)C1CCN(Cc2ccc(C)cc2C)CC1 |
| 566 s | CCN1CCN(CCCNC(=O)C2CCCN(C(=O)c3cc4sccc4n3CC)C2)CC1 (stereo not given) |
| 836 s | O=C(Cn1c(C(F)(F)F)nc2cc3c(cc21)OCCO3)Nc1ccc2c(c1)OCCCO2 |
| 977 s | CC(=O)c1sc2nc(SC/C=C/c3ccccc3)[nH]c(=O)c2c1C |
| 1000 s | Fc1ccc(-c2nc(-c3cccc(-c4ccn[nH]4)c3)no2)cc1 |
| 1140 s | Cc1ccc(C)c(-c2csc(NC(=O)c3ccc4c(c3)OCO4)n2)c1 |
| 725 s | O=C1CCN(C(=O)C2CCN(C(=O)CCC3CCCC3)CC2)CCCCCCN1 |
| 778 s | CC1Oc2ccc(S(=O)(=O)N3CCC(C(=O)Nc4ccc(Cl)cc4)CC3)cc2NC1=O (stereo not given) |
| 852 s | Cc1ccc(-c2csc(NC(=O)CN3C(=O)c4ccccc4C3=O)n2)o1 |
| 717 s | O=C(Nc1nc2c(s1)CN(C(=O)c1cc(-c3ccc(F)cc3)n[nH]1)CC2)c1ccco1 |
| 647 s | CCc1cc(=O)n(CC(=O)NC2CCCC2)c(N2CCOCC2)n1 |
| 639 s | CCOC(=O)c1ccc(NC(=O)CN2CCc3[nH]c4c(C)c(C)ccc4c(=O)c3C2)cc1 |
| 866 s | COc1ccc(-c2nsc(C(=O)NCc3cccs3)c2N)cc1 |
| 642 s | c1cc(-c2nc(-c3ccc4c(c3)nnn4CCN3CCCCC3)no2)co1 |
| 829 s | O=C(c1ccc2c(c1)CCN2C(=O)C1CC1)N1CCN(c2ccccc2)CC1 |

| RP-LC retention time | SMILES |
| --- | --- |
| 809 s | CC(C)CNC(=O)C1CCN(S(C)(=O)=O)c2cc(Cl)ccc2O1 (stereo not given) |
| 922 s | CCCCn1cnc2c(-c3ccccc3)cn(CC(=O)NCc3ccco3)c2c1=O |
| 618 s | Cc1ccccc1CC(=O)NCc1ccc2c(c1)ncn2C(C)C |
| 556 s | Cc1cc(C)c2c(N3CCCCC3)nc(C(=O)N3CCN(C(C)C)CC3)nc2n1 |
| 969 s | CCn1c(C(=O)NCCc2c[nH]c3ccccc23)cc2cc(S(=O)(=O)N(C)C)ccc21 |
| 755 s | CN1C(=O)CCc2cc(NC(=O)Cc3ccccc3Cl)ccc21 |
| 791 s | COc1cc(CNC(=O)c2c(N3CCCC3=O)c3cc(F)ccc3n2C)cc(OC)c1OC |
| 946 s | O=C(Cn1c(N2CCCCC2)nc2ccccc2c1=O)NCc1ccc(Cl)cc1 |
| 623 s | COc1ccc(-n2nc(C(=O)N3CCN(c4ccccn4)CC3)c(=O)n(C)c2=O)cc1 |
| 733 s | Cc1ccsc1C(=O)Nc1ccc2c(c1)CCC(=O)N2C |
| 652 s | CC(=O)N1C[C@@H](C(=O)NCCc2cccs2)[C@H](c2nc(C)no2)C1 |
| 689 s | O=C(NCc1ccccc1F)C1CCN(c2cnc3nccnc3c2)CC1 |
| 769 s | CCc1ccc(S(=O)(=O)N2CCCC(Cn3c(C)nc4cccnc43)C2)cc1 (stereo not given) |
| 776 s | Cc1cc(C(=O)NCC(O)(c2ccccc2)C(F)(F)F)no1 (stereo not given) |
| 866 s | CCc1nc2c(NC(=O)c3ccccc3C(F)(F)F)cccn2n1 |
| 725 s | COCCCNC(=O)CN1c2ccccc2NC2=C(C(=O)CC(C)(C)C2)C1c1ccco1 (stereo not given) |
| 686 s | CCNC(=O)Nc1ccc(OCC(=O)NC(C)c2cccc(OC)c2)nc1 (stereo not given) |
| 911 s | O=C(C1CCN(S(=O)(=O)c2cc(-c3noc(C4CCC4)n3)cs2)CC1)N1CCCC1 |
| 1010 s | CC(C)(C)NC(=O)Cc1cccn1-c1cccc(Cl)c1 |
| 719 s | O=C(NC1CC1)c1n[nH]c2c1CCCCCC2 |
| 666 s | Cc1cc(NC(=O)CSc2ccc(-n3cccn3)nn2)on1 |
